Values after ≈ are worked out from the molar mass of the structure shown. Where two headings read alike, the source gives them in different places.
How the values were obtained:
[1] = DPPH microplate radical scavenging antioxidant assay; type: biochemical; conditions: for IC50: DPPH, 30 min, mean ± SD (n = 3)
Protocol: The antioxidant activity of the synthesized compounds was measured in terms of hydrogen-donating or radical scavenging ability using the DPPH microplate-based method. Absorbance measurement was obtained using Microplate/cuvette reader (Spectramax M5, Molecular Devices, California, USA). Reference standard compound ascorbic acid was used as the positive control for this assay at concentrations ranging from 1.563 to 200 μg/mL. Test samples were prepared at a starting concentration of 200 μg/mL after mixing with 100 μl of 0.2 mM DPPH methanolic solution. A series of concentrations were tested for the samples in order to determine the 50% inhibitory concentration (IC50). Samples were incubated with DPPH in the dark for 30 min at room temperature (25° C.). The DPPH solution in methanol was prepared daily and stored in a flask covered with aluminum foil. DPPH radicals have an absorption maximum (λmax) at 515 nm, in which the absorbance values were measured and converted into percentage of antioxidant activity.
Methanolic DPPH solution without antioxidant was applied as control and background control was samples in methanol only. IC50 was determined using Graphpad Prism 7 (Graphpad Software Inc. CA, USA). The percentage inhibition was calculated by using the formula:
The assay was carried out in triplicate and performed as much as possible in an area protected against light. The data points are presented as the mean±standard deviation (SD) (n=3).

[2] = test system: Bacillus megaterium ATCC 9885; assay: Agar well diffusion, primary antimicrobial screening; type: cell-based; conditions: for zone of inhibition at 10000 µg/mL: Priestia megaterium, ATCC9885, B. megaterium ATCC 9885, 100 μL of 10 mg/ml in DMSO, 24 h, read-out: Inhibition Diameter Zone BM; for antibacterial activity compared with ciprofloxacin: B. megaterium
Excerpt: (§1) The newly synthesized compounds were individually tested for their in vitro antimicrobial activity against the standard bacteria strains of American Type Culture Collection (ATCC), namely, Staphylococcus aureus ATCC 29213, Bacillus subtilis ATCC 6633, Bacillus megaterium ATCC 9885 (Gram-positive), Escherichia coli ATCC 2592 and Pseudomonas aeruginosa ATCC 27953 (Gram-negative). In addition, they were microbiologically tested against the locally isolated Saccharomyces cerevisiae (yeast) and the standard strain of Agricultural Research Service Culture Collection (NRRL) of the yeast like pathogenic fungus Candida albicans NRRL Y-477. The primary screening was carried out using the agar well diffusion method using nutrient agar (NA) medium and Sabourand dextrose agar (SDA) medium for pathological tested bacteria and yeast, respectively.
(§2) Antimicrobial tests were carried out by the agar well diffusion method using 100 μL of suspension containing 1×10^8 CFU/mL of pathological tested bacteria and 1×10^6 CFU/ml of yeast spread on NA and SDA, respectively. After the media was cooled and solidified, wells (10 mm in diameter) were made in the solidified agar and loaded with 100 μL of tested compound solution prepared by dissolving 10 mg of the chemical compound in one ml of dimethyl sulfoxide (DMSO). The inculcated plates were then incubated for 24 h at 37° C. for bacteria and yeast. Negative controls were prepared using DMSO employed for dissolving the tested compound. Ciprofloxacin (10 mg/ml) and ketoconazole (10 mg/ml) were used as standard for antibacterial and antifungal activity, respectively. After incubation time, antimicrobial activity was evaluated by measuring the zone of inhibition against the test organisms and compared with that of the standard. Antimicrobial activities were expressed as inhibition diameter zones in millimeters (mm). The experiment was carried out in triplicate and the average zone of inhibition was calculated.

[3] = test system: Bacillus subtilis ATCC 6633; assay: as above; type: cell-based; conditions: for zone of inhibition at 10000 µg/mL: Bacillus subtilis, ATCC6633, B. subtilis ATCC 6633, 100 μL of 10 mg/ml in DMSO, 24 h, read-out: Inhibition Diameter Zone BS; for antibacterial activity compared with reference drug: B. subtilis
Excerpt: as §1, §2

[4] = test system: Candida albicans NRRL Y-477; assay: as above; type: cell-based; conditions: for zone of inhibition at 10000 µg/mL: Candida albicans, NRRLY477, C. albicans NRRL Y-477, 100 μL of 10 mg/ml in DMSO, 24 h, read-out: Inhibition Diameter Zone CA; for antifungal activity compared with reference drug: C. albicans
Excerpt: as §1, §2

[5] = test system: Escherichia coli ATCC 2592; assay: as above; type: cell-based; conditions: for zone of inhibition at 10000 µg/mL: Escherichia coli, ATCC2592, E. coli ATCC 2592, 100 μL of 10 mg/ml in DMSO, 24 h, read-out: Inhibition Diameter Zone EC; for antibacterial activity compared with ciprofloxacin: E. coli
Excerpt: as §1, §2

[6] = test system: Pseudomonas aeruginosa ATCC 27953; assay: as above; type: cell-based; conditions: for zone of inhibition at 10000 µg/mL: Pseudomonas aeruginosa, ATCC27953, P. aeruginosa ATCC 27953, 100 μL of 10 mg/ml in DMSO, 24 h, read-out: Inhibition Diameter Zone PA
Excerpt: as §1, §2

[7] = test system: Saccharomyces cerevisiae (local isolate); assay: as above; type: cell-based; conditions: for zone of inhibition at 10000 µg/mL: Saccharomyces cerevisiae, 24 h, read-out: Inhibition Diameter Zone SC; for antimicrobial activity compared with ketoconazole: S. cerevisiae
Excerpt: as §1, §2

[8] = test system: Staphylococcus aureus ATCC 29213; assay: as above; type: cell-based; conditions: for zone of inhibition at 10000 µg/mL: Staphylococcus aureus, ATCC29213, S. aureus ATCC 29213, 100 μL of 10 mg/ml in DMSO, 24 h, read-out: Inhibition Diameter Zone SA; for antibacterial activity compared with ciprofloxacin: S. aureus
Excerpt: as §1, §2

trypsin = assay: Proteinase inhibitory activity (trypsin/casein); type: biochemical; conditions: for % Inhibition of proteinase activity: 250 μg/ml, mean ± SD (n = 3)
Protocol: For proteinase inhibitory activity, the reaction mixture (2 ml) contained 0.06 mg trypsin, 20 mM Tris HCl buffer (pH 7.4) and 1 ml test sample (250 μg/ml for each compound). The mixture was incubated for 5 min and then 1 ml of 0.8% (w/v) casein was added. The mixture was incubated for an additional 20 min. 1 ml of 10% perchloric acid was added to arrest the reaction. The cloudy suspension was centrifuged, and the absorbance of the supernatant was read at 280 nm. Reference standard compound aspirin was used as the positive control for this assay. The experiment was performed in triplicate. Percentage inhibition of […] was calculated by using the following formula:
[formula] where Acontrol is the absorbance of the control reaction and Atest is the absorbance of the control reaction with sample.

tested microorganisms = assay: Agar well diffusion, summary over the tested microorganisms; type: cell-based; conditions: for antimicrobial activity compared with standard antimicrobials (ciprofloxacin and ketoconazole): against one or more microorganisms
Excerpt: as §1, §2

[9] = S. cerevisiae local isolate, 100 μL of 10 mg/ml in DMSO

| SMILES | IC50 [1] | zone of inhibition at 10000 µg/mL [2] | zone of inhibition at 10000 µg/mL [3] | zone of inhibition at 10000 µg/mL [4] | zone of inhibition at 10000 µg/mL [5] | zone of inhibition at 10000 µg/mL [6] | zone of inhibition at 10000 µg/mL [7, 9] | % Inhibition of proteinase activity (trypsin) | melting point | antibacterial activity compared with reference drug [3] | antimicrobial activity compared with ketoconazole [7] | antibacterial activity compared with ciprofloxacin [8] | antimicrobial activity compared with standard antimicrobials (ciprofloxacin and ketoconazole) (tested microorganisms) | also measured |
| --- | --- | --- | --- | --- | --- | --- | --- | --- | --- | --- | --- | --- | --- | --- |
| Cc1ccc2oc(=O)c(S(=O)(=O)Nc3ccc(S(N)(=O)=O)cc3)c(O)c2c1 [Compound 10b, 4-Hydroxy-6-methyl-2-oxo-N-(4-sulfamoylphenyl)-2H-chromene-3-sulfonamide] | 61.78 ± 2.719 µg/mL (≈ 151 µM) | < 15 mm | < 15 mm | < 15 mm | < 15 mm | < 15 mm | < 15 mm | 5.93 ± 2.11% | 241 to 243 °C | – | – | – | – | zone of inhibition at 10000 µg/mL [8]: < 15 mm; growth inhibition zones (tested microorganisms; against one or more of the tested microorganisms): < 15 mm |
| O=c1oc2ccc(Cl)cc2c(O)c1S(=O)(=O)Nc1ccc(S(=O)(=O)Nc2ncccn2)cc1 [Compound 10c, 6-Chloro-4-hydroxy-2-oxo-N-(4-(N-(pyrimidin-2-yl)sulfamoyl)phenyl)-2H-chromene-3-sulfonamide] | 120.12 ± 4.629 µg/mL (≈ 236 µM) | – | – | – | – | – | 31 mm | – | 230 to 232 °C | higher than the reference drug | higher than that of the corresponding control drug | higher than the control ciprofloxacin | equal to or higher than the standard antimicrobials | antibacterial activity compared with ciprofloxacin [2]: comparable to ciprofloxacin; antibacterial activity compared with ciprofloxacin [5]: comparable antibacterial potential |
| Cc1ccc2oc(=O)c(S(=O)(=O)Nc3ccc(S(=O)(=O)Nc4ncccn4)cc3)c(O)c2c1 [Compound 10d, 4-hydroxy-6-methyl-2-oxo-N-(4-(N-(pyrimidin-2-yl)sulfamoyl)phenyl)-2H-chromene-3-sulfonamide] | 112.19 ± 4.391 µg/mL (≈ 230 µM) | – | – | – | – | – | 32 mm | 36.84 ± 4.87% | 207 to 209 °C | higher than the reference drug | higher than that of the corresponding control drug | higher than the control ciprofloxacin | equal to or higher than the standard antimicrobials | antibacterial activity compared with ciprofloxacin [2]: comparable to ciprofloxacin; antifungal activity compared with reference drug [4]: higher antifungal activity; antimicrobial spectrum (tested microorganisms): broad-spectrum activity against all of the tested microorganisms |
| O=C(/C=C/c1ccc([N+](=O)[O-])cc1)c1ccc(NS(=O)(=O)c2c(O)c3cc(Cl)ccc3oc2=O)cc1 [Compound 12a, (E)-6-chloro-4-hydroxy-N-(4-(3-(4-nitrophenyl)acryloyl)phenyl)-2-oxo-2H-chromene-3-sulfonamide] | — ((—): inactive (IC50 > 200 μg/mL)) | – | – | < 15 mm | < 15 mm | < 15 mm | < 15 mm | 62.14±4.87% | 205 to 207 °C | – | – | – | – | in vitro anti-proteinase activity compared with aspirin (trypsin): more potent |
| Cc1ccc2oc(=O)c3c(c2c1)OC(N=CN(C)C)=C(C#N)C3c1ccc([N+](=O)[O-])cc1 (racemic) [Compound 7a, (±)-N′-(3-cyano-9-methyl-4-(4-nitrophenyl)-5-oxo-4H,5H-pyrano[3,2-c]chromen-2-yl)-N,N-dimethylformimidamide] | — ((—): inactive (IC50 > 200 μg/mL)) | < 15 mm | < 15 mm | < 15 mm | < 15 mm | < 15 mm | – | 31.99 ± 2.45% | 279 to 281 °C | – | – | – | – | zone of inhibition at 10000 µg/mL [7]: < 15 mm |
| Cc1ccc2oc(=O)c(S(=O)(=O)Nc3ccc(O)cc3)c(O)c2c1 [Compound 11d, 4-Hydroxy-N-(4-hydroxyphenyl)-6-methyl-2-oxo-2H-chromene-3-sulfonamide] | 4.30 ± 0.531 µg/mL (≈ 12.4 µM) | – | – | – | – | – | 32 mm | 20.15 ± 7.31% | 253 to 254 °C | comparable antibacterial activities to the standard | higher than that of the corresponding control drug | higher than the control ciprofloxacin | equal to or higher than the standard antimicrobials | antioxidant activity ([1]; overview): particularly high antioxidant activity; antifungal activity compared with reference drug [4]: higher antifungal activity; antibacterial activity compared with ciprofloxacin [5]: higher antibacterial activity than ciprofloxacin; antibacterial activity compared with standard ([6]; P. aeruginosa): higher than that of the standard drugs |
| CC(=O)c1ccc(NS(=O)(=O)c2c(O)c3cc(C)ccc3oc2=O)cc1 [Compound 11f, N-(4-acetylphenyl)-4-hydroxy-6-methyl-2-oxo-2H-chromene-3-sulfonamide] | 35.36 ± 3.265 µg/mL (≈ 94.7 µM) | – | – | < 15 mm | < 15 mm | < 15 mm | < 15 mm | 2.0 ± 1.4% | 231 to 232 °C | – | – | – | – | – |
| CC(=O)N1CCN(c2ccc(OCC3COC(Cn4ccnc4)(c4ccc(Cl)cc4Cl)O3)cc2)CC1 (stereo not drawn) [Ketoconazole, ketoconazole, reference compound] | – | < 15 mm | < 15 mm | – | < 15 mm | < 15 mm | – | – | – | – | – | – | – | zone of inhibition at 10000 µg/mL [8]: < 15 mm |

From US10730885B1, “Coumarin derivatives” (KING SAUD UNIVERSITY, priority 2019, dated 2020)
